Results: patent US8053475B2, “Preparation of the formaurindikarboxyl acid base and its derivations and use” (Vyzkumny Ustav Zivocisne Vyroby, V.V.I., priority 2007, dated 2011)

Tested on: Cryptosporidium parvum
Assay: In vivo model of Tzipori (1998), modified: orally infected baby mice treated for 8 days
Parameters: species or system C57B1/6 baby mice
Settings: aurintricarboxylic acid 50 and 100 mmol/kg/day orally in 2 equal portions at 12-hr intervals, suckling C57B1/6 mice infected with 100 000 oocysts
Description: In vivo model designed by Tzipori (1998) was used in following modification: Three-day-old, SPF C57B1/6 baby mice (Velaz, Czech Republic) were randomly assigned to groups of 8-9 mice. The baby mice were caged with their mother in sterile microisolators equipped with filter tops under standard conditions. 4-day-old mice were orally infected with 100 000 oocysts and the treatment was initiated at the same time; the daily dose of aurintricarboxylic acid 50 and […] was divided into 2 equal portions and orally administered in 12-hr intervals. A control group received phosphate buffer saline, and paromomycin (100 mg/kg/day) was used as positive control. ATA was prepared fresh before each use by dissolving the drug in aqueous solution of sodium hydroxide or potassium hydroxide at a molar ratio of 1:3 (ATA:NaOH), or in dimethylsulfoxide. […] Intensity of infection was expressed as the number of oocysts in homogenized intestinal tract in the 9th day after infection. The experiment was repeated between 2006 and 2007 and always gave very similar results.
The inihibition aurintricarboxylic acid on experimental Cryptosporidium parvum-infection in suckling C57B16 mice is graphed in FIG. 1.

O=C(O)C1=CC(=C(c2ccc(O)c(C(=O)O)c2)c2ccc(O)c(C(=O)O)c2)C=CC1=O [aurintricarboxylic acid]
tolerability of the treatment (visible signs of toxicity): tolerated without any visible signs of toxicity
